Each structure is given as a SMILES string. Where two headings read alike, the source gives them in different places.

One molecule from article PMC10544575, “Inhibitory mechanism of vortioxetine on CYP450 enzymes in human and rat liver microsomes” (Frontiers in Pharmacology, 2023) can be followed below.

One data set deals with CYP2C-1. Briefly: IC50 of vortioxetine on CYP2C-1 (amodiaquine) in RLMs. It is filed as in vitro ADME. As to conditions: rat, rat liver microsomes, probe amodiaquine. As for the experimental part: (§1) The components of the incubation system were as follows: 0.20 mg/mL HLMs or 0.20 mg/mL RLMs, 0.1 M Tris-HCl, vortioxetine, and the probe substrates of each enzyme. In the study of Km’s (Michaelis–Menten constant) experiment, midazolam (1, 2, 5, 10, 20, 50 and 100 μM in HLMs and RLMs) corresponded to CYP3A4/3A; bupropion (10, 20, 50, 100, 200, 500, 1,000 and 2000 μM in HLMs; 1, 2, 5, 10, 20, 50, 100 and 200 μM in RLMs) corresponded to CYP2B6/2B; amodiaquine (5, 10, 20, 50, 100 and 200 μM in HLMs; 10, 20, 50, 100, 200, 500 μM in RLMs) corresponded to CYP2C8/CYP2C-1; losartan (1, 2, 5, 10, 20, 50, 100, 200 μM in HLMs; 10, 20, 50, 100, 200, 500 and 1,000 μM in RLMs) corresponded to CYP2C9/CYP2C-2; mephenytoin (20, 50, 100, 200, 500 and 1,000 μM in HLMs; 5, 10, 20, 50, 100, 200, 500 and 1,000 μM in RLMs) corresponded to CYP2C19/CYP2C-3; and dextromethorphan (1, 2, 5, 10, 20, 50 and 100 μM in HLMs and RLMs) corresponded to CYP2D6/CYP2D. […]
(§2) All experiments results were detected by UPLC-MS/MS, which equipped with a Waters Acquity UPLC system (Milford, MA, United States) and a Waters Xevo TQ-S triple quadrupole tandem mass spectrometer with an electrospray ionization source (Milford, MA, United States). […]
(§3) IC50 values and enzyme kinetic parameters were calculated by Graphpad Prism 6.0 (GraphPad software Inc., CA, United States). […] Data for each experiment were expressed as mean ± SD (n = 3).
(In general: Liver microsomes are a subcellular fraction often used to study metabolism.)

The next data set has as its system CYP2D. As to the kind of experiment: IC50 of vortioxetine on CYP2D (dextromethorphan) in RLMs. It is filed as in vitro ADME. As to conditions: rat, rat liver microsomes, probe dextromethorphan. As for the experimental part:
as §1, §2, §3

A further data set relates to CYP3A. Briefly: Reversible inhibition kinetics (Lineweaver-Burk), CYP3A in RLMs. Type of data set: in vitro ADME, rat. As for the experimental part:
as §1, §2, §3

The next data set relates to CYP2B. As to the kind of experiment: Reversible inhibition kinetics (Lineweaver-Burk), CYP2B in RLMs. It is filed as in vitro ADME, rat. As for the experimental part:
as §1, §2, §3

Another data set relates to CYP2C-2. As to the kind of experiment: Reversible inhibition kinetics (Lineweaver-Burk), CYP2C-2 in RLMs. Type of data set: in vitro ADME, rat. As for the experimental part:
as §1, §2, §3

The mark [1] stands for this setting: inhibitory effect (strength judged by IC50), RLMs.

For orientation: IC50 means the concentration at which inhibition is half-maximal. By Ki is commonly meant a measure of affinity in units of concentration, obtained from inhibition or displacement. Higher therefore signals a looser hold on the target. For `Cc1ccc(Sc2ccccc2N2CCNCC2)c(C)c1` [vortioxetine], the IC50 at 30 min in the data set with CYP2C-1 (RLMs 0.20 mg/mL, amodiaquine at Km, 37°C, 30 min, read-out: IC50) was 22.2 µM; with CYP2C-1 (setting [1]), above 10 µM; with CYP2D (RLMs 0.20 mg/mL, dextromethorphan at Km, 37°C, 30 min, read-out: IC50), 15.7 µM; with CYP2D (setting [1]) it was above 10 µM. Also, the Inhibition type entry in the data set on CYP3A (midazolam, Lineweaver-Burk plot) is “uncompetitive inhibition”; with CYP2B (bupropion, Lineweaver-Burk plot) it was “competitive inhibition”; in the data set on CYP2C-2 (losartan, Lineweaver-Burk plot), “competitive inhibition”. In addition, the Ki at 30 min turned out to be 4.41 µM with CYP3A (rat, rat liver microsomes, probe midazolam); 2.87 µM in the data set with CYP2B (rat, rat liver microsomes, probe bupropion); 0.12 µM with CYP2C-2 (rat, rat liver microsomes, probe losartan).
